From PubChem BioAssay (NCI) come the findings set out here.

Among the test systems are BT-549 breast; MDA-MB-231 breast; 786-0 renal; HCC-2998 colon; HCT-15 colon; CCRF-CEM leukemia; PC-3 prostate; SK-MEL-5 melanoma; HL-60(TB) leukemia; DU-145 prostate.
Common to all, as to assay: NCI tumour cell line growth inhibition, 48 h

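Assay format: 96-well plates, 48-hour exposure. At the GI50, growth is halved. TGI: total growth inhibition.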 Some results are limits rather than exact numbers.

For the molecule `O=C(/C=C/C=C/c1c(C2CC2)nc2ccccc2c1-c1ccc(F)cc1)c1cccs1`, the GI50 with BT-549 breast is 1.59 µM; in the assay with MDA-MB-231 breast it was 2.58 µM; in the assay with 786-0 renal, 2.76 µM; with HCC-2998 colon, 1.99 µM; in the assay with HCT-15 colon it was 1.06 µM; in the assay on CCRF-CEM leukemia, 1.37 µM. The GI50 with PC-3 prostate is 3.99 µM; in the assay with SK-MEL-5 melanoma, 1.34 µM; with HL-60(TB) leukemia it was 1.58 µM; in the assay with DU-145 prostate it was 2.46 µM. Also, the TGI was 5.07 µM in the assay with BT-549 breast; above 100 µM in the assay on MDA-MB-231 breast; above 100 µM in the assay with 786-0 renal; 4.95 µM in the assay with HCC-2998 colon; 3.92 µM with HCT-15 colon; above 100 µM in the assay with CCRF-CEM leukemia. The TGI was above 100 µM in the assay on PC-3 prostate, 2.74 µM with SK-MEL-5 melanoma, 5.48 µM in the assay with HL-60(TB) leukemia and above 100 µM in the assay with DU-145 prostate.

With `COc1cc2c(cc1OC)C(OC)N(C)c1c-2ccc2cc3c(cc12)OCO3` (stereo not drawn), the TGI with BT-549 breast was above 75 µM; with MDA-MB-231 breast, 5.16 µM; in the assay with 786-0 renal, 5.47 µM; in the assay on HCC-2998 colon, 5.73 µM; in the assay with HCT-15 colon, above 75 µM; in the assay with CCRF-CEM leukemia, 13.4 µM. Also, the TGI was above 75 µM with PC-3 prostate, 6.76 µM with SK-MEL-5 melanoma, above 36.9 µM in the assay with HL-60(TB) leukemia and above 75 µM in the assay with DU-145 prostate.

Regarding `Fc1ccc(-c2ncn(C3CCNCC3)c2-c2ccnc(Oc3ccc(F)c(F)c3)n2)cc1`, the GI50 is 12.1 µM in the assay on BT-549 breast; 5.59 µM in the assay on MDA-MB-231 breast; 8.97 µM with 786-0 renal; 3.84 µM with HCC-2998 colon; 5.64 µM in the assay on HCT-15 colon; above 14.9 µM in the assay on CCRF-CEM leukemia. Also, the GI50 in the assay with PC-3 prostate was 9.05 µM; with SK-MEL-5 melanoma, 3.55 µM; in the assay with HL-60(TB) leukemia, 10.6 µM; with DU-145 prostate, 8.78 µM. Moreover, the TGI was above 25 µM in the assay on BT-549 breast; 12 µM with MDA-MB-231 breast; above 16.2 µM in the assay with 786-0 renal; 7.77 µM in the assay on HCC-2998 colon; 15.6 µM with HCT-15 colon; 24.2 µM with CCRF-CEM leukemia. Also, the TGI was above 19.9 µM with PC-3 prostate, 6.83 µM in the assay on SK-MEL-5 melanoma, 24.6 µM in the assay with HL-60(TB) leukemia and above 16.7 µM in the assay with DU-145 prostate.

`Cc1cc2cn3c4ccc(O)cc4[nH]c(=O)c3c2cc1C`: the GI50 was 0.071 µM with MDA-MB-231 breast; 0.0696 µM in the assay on 786-0 renal; 0.0679 µM with HCC-2998 colon; 0.032 µM in the assay with HCT-15 colon; 0.0418 µM with CCRF-CEM leukemia; 0.0542 µM in the assay on PC-3 prostate. Further, the results for the GI50 with SK-MEL-5 melanoma and with DU-145 prostate were 0.0272 µM and 0.0285 µM, respectively. For the same molecule, the TGI in the assay on MDA-MB-231 breast stood at 1.22 µM; with 786-0 renal it was 1.83 µM; in the assay with HCC-2998 colon, 1.3 µM; in the assay on HCT-15 colon, 1.18 µM; with CCRF-CEM leukemia it was 1.81 µM; with PC-3 prostate, 1.7 µM. Also, the TGI was found to be 0.231 µM in the assay on SK-MEL-5 melanoma and 0.315 µM in the assay with DU-145 prostate.

On to `O=c1c(O)cccc2cc(O)c(O)c(O)c12`, for which the GI50 is 7.5 µM in the assay with MDA-MB-231 breast; 62.1 µM with 786-0 renal; above 100 µM with HCC-2998 colon; 39.1 µM with HCT-15 colon; 7.55 µM in the assay with CCRF-CEM leukemia; 54.1 µM in the assay on PC-3 prostate. Also, the values for the GI50 with SK-MEL-5 melanoma, in the assay with HL-60(TB) leukemia and with DU-145 prostate were above 100 µM, 21.9 µM and 18.8 µM, respectively. The TGI in the assay on MDA-MB-231 breast, with 786-0 renal, in the assay on HCC-2998 colon, in the assay with HCT-15 colon, in the assay on CCRF-CEM leukemia and in the assay with PC-3 prostate was above 100 µM each time. Also, the TGI was above 100 µM with SK-MEL-5 melanoma, 77.9 µM in the assay with HL-60(TB) leukemia and above 100 µM with DU-145 prostate.

For `Clc1ccc(C2=Nn3c(nnc3-c3cc(Cl)cc(Cl)c3Cl)SC2)cc1`, the GI50 was 17.6 µM in the assay on BT-549 breast; 23.3 µM in the assay on MDA-MB-231 breast; 17.1 µM in the assay on 786-0 renal; 22.3 µM with HCT-15 colon; 10.7 µM in the assay on CCRF-CEM leukemia; 73.4 µM in the assay with PC-3 prostate. Moreover, the GI50 with SK-MEL-5 melanoma is 23.5 µM; in the assay with HL-60(TB) leukemia, 7.26 µM; with DU-145 prostate, 34.2 µM. For the same molecule, the TGI in the assay with BT-549 breast is 47.7 µM; in the assay with MDA-MB-231 breast, 97.1 µM; in the assay on 786-0 renal it was 38 µM; in the assay with HCT-15 colon, above 100 µM; with CCRF-CEM leukemia, 26 µM; in the assay with PC-3 prostate, above 100 µM. Also, the TGI is above 100 µM with SK-MEL-5 melanoma, 30.7 µM with HL-60(TB) leukemia and above 100 µM in the assay on DU-145 prostate.

For `Cc1cc(Nc2c3ccccc3nc3ccccc23)ccc1NS(C)(=O)=O`, the GI50 in the assay with BT-549 breast was 10.3 µM; in the assay with MDA-MB-231 breast, 4.35 µM; in the assay on 786-0 renal, 4.73 µM; with HCC-2998 colon, 5.94 µM; with HCT-15 colon it was 4.12 µM; in the assay on CCRF-CEM leukemia it was 3.25 µM. The GI50 with SK-MEL-5 melanoma is 4.2 µM; in the assay with HL-60(TB) leukemia, 3.67 µM; in the assay with DU-145 prostate, 4.87 µM. Moreover, the TGI amounted to 22.5 µM in the assay on BT-549 breast; 19.7 µM in the assay with MDA-MB-231 breast; 16.7 µM with 786-0 renal; 20.7 µM in the assay on HCC-2998 colon; 20.5 µM in the assay on HCT-15 colon; 20.3 µM in the assay on CCRF-CEM leukemia. Besides, the TGI in the assay with SK-MEL-5 melanoma is 16.6 µM; with HL-60(TB) leukemia, 12.1 µM; in the assay with DU-145 prostate it was 19.9 µM.

For the molecule `CCCCCCCCCCCCCCCC[N+](C)(CCO)Cc1cnc[nH]1` (stereo not drawn), the GI50 was 2.52 µM with BT-549 breast; 1.48 µM with MDA-MB-231 breast; 0.852 µM with 786-0 renal; 1.14 µM with HCC-2998 colon; 3.03 µM with HCT-15 colon; 0.441 µM with PC-3 prostate. The GI50 in the assay on HL-60(TB) leukemia is 0.39 µM; in the assay on DU-145 prostate, 1.23 µM. For the same molecule, the TGI with BT-549 breast came to 7.05 µM; in the assay on MDA-MB-231 breast, 5.5 µM; in the assay with 786-0 renal, 2.84 µM; with HCC-2998 colon it was 2.73 µM; in the assay on HCT-15 colon, 26.1 µM; with PC-3 prostate, 2.37 µM. Also, the TGI with HL-60(TB) leukemia is 2 µM; in the assay with DU-145 prostate, 4.2 µM.

`O=[N+]([O-])/C=C/c1cc2ccccc2[nH]1`: the TGI was found to be 29.5 µM in the assay on BT-549 breast; 36.9 µM in the assay with MDA-MB-231 breast; 27.9 µM in the assay on 786-0 renal; 53.6 µM with HCT-15 colon; 9.61 µM in the assay with CCRF-CEM leukemia; 31.7 µM in the assay with PC-3 prostate. The TGI was 28.2 µM in the assay on SK-MEL-5 melanoma, 24.3 µM with HL-60(TB) leukemia and 28.8 µM in the assay with DU-145 prostate.

In the case of `Nc1nc2cc3ccc(C4CC(O)C(CO)O4)cc3cc2c(=O)[nH]1` (stereo not drawn), the GI50 is above 100 µM with BT-549 breast; above 100 µM in the assay on MDA-MB-231 breast; above 100 µM in the assay on 786-0 renal; above 100 µM in the assay on HCC-2998 colon; above 100 µM with HCT-15 colon; 41.4 µM with CCRF-CEM leukemia. Also, the GI50 in the assay with PC-3 prostate, in the assay with SK-MEL-5 melanoma and in the assay with DU-145 prostate was above 100 µM throughout. The TGI in the assay with BT-549 breast, in the assay on MDA-MB-231 breast, in the assay on 786-0 renal, in the assay with HCC-2998 colon, in the assay with HCT-15 colon and with CCRF-CEM leukemia was above 100 µM in each case. Moreover, the TGI in the assay on PC-3 prostate, with SK-MEL-5 melanoma and with DU-145 prostate was above 100 µM throughout.

With `Cc1[nH]c2ccccc2c1-c1cc(-c2cc(-c3c(C)[nH]c4ccccc34)nc(N)n2)nc(N)n1`, the TGI with BT-549 breast, in the assay with MDA-MB-231 breast, in the assay on 786-0 renal, in the assay on HCT-15 colon, with PC-3 prostate and with SK-MEL-5 melanoma was above 100 µM each time. Besides, the TGI with HL-60(TB) leukemia was above 100 µM.

In the case of `COc1cc2c3c(n(CCCNCCCNCCCNCCCN)c(=O)c2cc1OC)-c1cc2c(cc1C3=O)OCO2`, the GI50 is 2.2 µM with BT-549 breast; 2.43 µM in the assay with MDA-MB-231 breast; 2.31 µM with 786-0 renal; 6.77 µM in the assay on HCT-15 colon; 0.301 µM in the assay on CCRF-CEM leukemia; 3.31 µM in the assay with PC-3 prostate. Moreover, the GI50 with HL-60(TB) leukemia was 1.36 µM; in the assay on DU-145 prostate it was 1.42 µM. The TGI in the assay on BT-549 breast stood at 6.44 µM; in the assay with MDA-MB-231 breast it was 7.79 µM; in the assay on 786-0 renal, 7.68 µM; with HCT-15 colon it was 29 µM; in the assay with CCRF-CEM leukemia, 2.16 µM; in the assay with PC-3 prostate, 14.8 µM. For the same molecule, the TGI in the assay on HL-60(TB) leukemia was found to be 3.3 µM; in the assay with DU-145 prostate, 4.19 µM.

`CN(C)/N=C(/c1nc2ccc([N+](=O)[O-])cc2[nH]c1=O)C(O)c1ccco1` (stereo not drawn): the TGI with 786-0 renal, in the assay on HCC-2998 colon, in the assay on HCT-15 colon, in the assay on CCRF-CEM leukemia, in the assay with SK-MEL-5 melanoma and in the assay on HL-60(TB) leukemia was above 100 µM each time.

Turning to `COC(=O)CCC(=O)Nc1cc(Cl)ccc1Cl`, the TGI in the assay on 786-0 renal, in the assay on HCC-2998 colon, in the assay with HCT-15 colon, in the assay on CCRF-CEM leukemia, in the assay with SK-MEL-5 melanoma and in the assay with HL-60(TB) leukemia was above 100 µM in each case.
